From patent US12258377B2 (Scancell Limited, priority 2012, dated 2025)
Read-outs that look alike come from different tables or passages of the source. Square brackets hold non-standard residues; d marks the D form. Ends that are not written are not given here. Cit = NC(=O)NCCC[C@H](N)C(=O)O

Assays:
[1] = tested on: splenocytes; assay: Ex vivo elispot assay on splenocytes of immunised HLA-DR4 transgenic mice; type: in vivo; conditions: for IFNγ/IL-17 response with alum or IFA / IFNγ/IL-17 responses with CpG/MPLA, GMCSF and TMX201 adjuvants / IL-10 responses to the citrullinated peptides with IFA: 25 μg peptide s.c.; for IL-10 elispot responses: against wild type and citrullinated peptides; for IFNγ elispot response to citrullinated peptide, mean / IFNγ elispot response to wild type peptide, mean: day 14 splenocytes; for response after depletion of CD4 cells or addition of MHC class II blocking antibody: L243 antibody, FIG. 15
Method: (§1) C57BL/6 mice (Charles River, UK), HLA-DR4 mice (Taconic, USA), HHDII mice (Pasteur institute, France) and HHDII/DRI mice (Pasteur institute, France) were used, aged between 8 and 12 weeks, and cared for by the staff at Nottingham Trent University. All work was carried out under a Home Office project license. Peptides were dissolved in 10% Dimethylformamide to 1 mg/ml and then emulsified (a series of dilutions) with different adjuvants: CpG and MPLA 6 μg/mouse of each (Invivogen, UK), Incomplete Freund's […] (Sigma, UK), and GMCSF 10 μg/mouse (Peprotech, UK). Peptides (25 μg/mouse) were injected subcutaneously at the base of the tail. DNA (1 μg/mouse) was coated onto 1.0 μm gold particles (BioRad, Hemel Hempstead, UK) using the manufacturer's instructions and administered intradermally by genegun (BioRad). Homspera (10 nM/mouse) (PeptideSynthetics, UK) was injected intradermally with genegun immunisation. Mice were immunized at either day 0 for peptide immunisation or days, 0, 7, and 14 for peptide and genegun immunisation. Spleens were removed for analysis at day 14 for peptide and day 20 for peptide or genegun immunisation unless stated otherwise. 400 μg Anti-CD25 antibody (PC61) was administered i.p. in saline 3 days prior to the immunisation. 200 μg Anti-CTLA-4 antibody (UC 10-4F, 10-11) was administered i.p. in saline at day 7 and 14 with either genegun or peptide immunisation.
(§2) Elispot assays were performed using murine IFNγ, IL-17 and IL-10 capture and detection reagents according to the manufacturer's instructions (Mabtech, Sweden). In brief, anti-IFNγ, IL-17 and IL-10 antibodies were coated onto wells of 96-well Immobilin-P plate. Synthetic peptides (at a variety of concentrations) and 5×10^5 per well splenocytes were added to the wells of the plate in triplicate. Tumour target cells were added where relevant at 5×10^4/well in triplicate and plates incubated for 40 hrs at 37° C. After incubation, captured IFNγ, […], IL-17 and IL-10 were detected by biotinylated anti-IFNγ, IL-17 and IL-10 antibodies and developed with a strepatavidin alkaline phosphatase and chromogenic substrate. Spots were analysed and counted using an automated plate reader (Cellular Technologies Ltd). Functional avidity was calculated as the concentration mediating 50% maximal effector function using a graph of effector function versus peptide concentration.

[2] = tested on: T2 DR4 tumour cells; assay: 51Cr-release assay, CTL lines from immunised mice against T2 DR4 cells; type: cell-based; conditions: for killing of normal splenocytes: DR4 splenocytes; for killing of T2 tumour cells transfected with human DR4: targets pulsed with peptide or not
Method: Target cells were labelled for 1 hr with 1.85 MBq sodium (^51Cr) chromate (Amersham, Essex, UK) with or without 10 μg/ml peptide. Post incubation they were washed 3 times in RPMI. Targets 5×10^3/well of a 96-well V-bottomed plates were set up and co incubated with different densities of effector cells in a final volume of 200 μl of RPMI, 10% FCS (Sigma), 20 mM HEPES buffer, 2 mM L-glutamine, 100 units/ml penicillin and 100 μg/ml streptomycin. After 20 hrs at 37° C., 50 μl of supernatants were removed from each well and transferred to a Lumaplate (Packard, Rigaweg, the Netherlands). Plates were read on a Topcount Microplate Scintillation Counter (Packard). Percentage specific lysis was calculated using the following formula: specific lysis=100×[(experimental release−spontaneous release)/(maximum release−spontaneous release)].

[3] = tested on: splenocytes; assay: Ex vivo elispot assay on splenocytes of immunised C57B1 mice; type: in vivo, C57BL/6 mice; conditions: C57B1 mice
Method: as §1, §2

[4] = tested on: B16F1 cells; assay: Tumour challenge with B16 tumour lacking HLA-DR0401; type: in vivo, HLA-DR4 transgenic mice; conditions: B16 tumour lacking expression of HLA-DR0401; 25 μg peptide in CpG and MPLA
Method: (§3) For tumour challenge experiments mice were challenged with 2.5×10^4 B16 HHDII NYESO/TAP2 siβ2m 1F10 cells or B16 DR4 2E7 cells subcutaneously on the right flank 3 days prior to primary immunisation and then were immunised as above. Anti-IFNγ antibody (300 μg/dose), anti-IL-17 antibody (200 μg/dose) and anti-HLA-DR antibody (300 μg/dose) were administered i.p. in saline at days 2, 7, 11 and 14 post tumour implant. Anti-CD4 antibody (500 μg/dose) was administered i.p.in saline at days 2 and 8 post tumour implant. Tumour growth was monitored at 3-4 days intervals and mice were humanely euthanized once tumour reached ≥10 mm in diameter.

[5] = tested on: Granzyme B; assay: Granzyme B ELISA on supernatant of ex vivo IFNγ elispot; type: cell-based, HLA-DR4 transgenic mice; conditions: immunised days 0, 7, 14 in CPG and MPLA
Text: Supernatant from ex vivo IFNγ elispot assays on splenocytes was removed after 40 hrs and assessed for Granzyme B by elisa assay (R&D systems) according to manufacturer's instructions.

[6] = tested on: splenocytes; assay: Ex vivo elispot assay on splenocytes of immunised HLA-DR1 / HLA-A2/DR1 (HHDII/DR1) transgenic mice; type: in vivo; conditions: HHD1/DR1 mice
Method: as §1, §2

[7] = tested on: B16F1-DR4 cells; assay: Tumour challenge with B16F1-DR4 cells; type: in vivo, HLA-DR4 transgenic mice; conditions: for anti-tumour response with blockade of IFNγ in vivo: IFNγ neutralising monoclonal antibody; for anti-tumour response with blockade of IL-17 in vivo: IL-17 neutralising antibody; for anti-tumour response in combination with CD4 T cell depletion (anti-CD4 antibody): clone GK1.5; for anti-tumour response / survival: peptide 25 μg in CpG and MPLA s.c. or DNA via gene gun, days 4, 11, 18, versus unimmunised control
Method: as §3

[8] = tested on: PBMC; assay: Proliferation assay of PBMC from cancer patients; type: cell-based, human; conditions: PBMC stimulated with 10 μg/ml peptide for 4, 7 and 11 days, 3H-thymidine
Method: PBMC were isolated from freshly drawn heparinised blood by Ficol-Hypaque (Sigma) gradient centrifugation. PBMC (1.5×10^6 cells/well) were stimulated with single peptides (final concentration 10 μg/ml) in RPMI containing 5% pooled autologous human serum, 2 mM glutamine, 20 mM HEPES and Penicillin-streptomycin (1%) in a final volume of 2 ml. Stimulation with purified protein derivative, PPD (final concentration 10 μg/ml) served as a positive control for the proliferative capacity of PBMC. As a negative control PBMC were incubated with medium alone. The PBMC were cultured at 37° C. in an atmosphere of 5% CO2 for 4, 7 and 11 days. To assess proliferation at these times points 100 μl in triplicate from each culture was aliquoted into a round bottom well of a 96 well plate and ^3H-thymidine added (0.0185 MBq/well) and incubated at 37° C. for a further 8 hours. The cultures were harvested onto unifilter plates and incorporation of ^3H-thymidine was determined by β-scintillation counting. The results were assessed by calculating the stimulation index (SI) as the ratio of the mean of counts per minute (cpm) of epitope-stimulated to the mean of unstimulated cultures. The proliferative assay was considered positive when SI >2.5.

[9] = target: HLA-DR0401 (Homo sapiens, UniProt P01903+P01911, A100K/A169T/F76Y/I96L/K127E/L162R/M171V/N62H/P40V/Q125Y/R42H/S133A/S149N/S66Y/V115G/V209L/W38E); assay: HLADR0401 competitive binding assay against biotinylated HA306-318; conditions: FIG. 12
Text: In brief, peptides of interest were mixed with a predetermined concentration biotinylated HA306-318 reference peptide at increasing concentrations and added to plate bound HLA DR0401. Amounts of biotinylated reference peptide binding to HLA DR0401 was quantified using streptavidin linked enzyme step followed by detection with chromogenic substrate. Maximal binding is taken as the value achieved by biotinylated HA 306-318 peptide alone. As a positive control unlabelled HA 306-318 peptide was used to compete with the biotinylated version.

[10] = target: T1, HLA-DR0401 (human); assay: competitive binding assay, plate-bound HLA-DR0401, biotinylated HA306-318 as competitor
T1 construct: also called purified HLA-DR0401; HLA-DR4

[11] = 25 μg peptide with CpG and MPLA day 0, day 14
[12] = 25 μg peptide with CpG and MPLA day 0, day 14, peptide 5 μM
[13] = 25 μg peptide with CpG and MPLA day 0, peptide 5 μM
[14] = 25 μg peptide in CpG and MPLA s.c. days 4, 11, 18

| Molecule | IFNγ/IL-17 response with alum or IFA ([1]; day 14) | IFNγ/IL-17 responses with CpG/MPLA, GMCSF and TMX201 adjuvants ([1]; day 14) | IL-10 responses to the citrullinated peptides with IFA ([1]; day 14) | IL-10 elispot responses [1, 11] | IFNγ elispot response to citrullinated peptide, mean [1, 13] | IFNγ elispot response to wild type peptide, mean [1, 13] | response after depletion of CD4 cells or addition of MHC class II blocking antibody ([1]; IFNγ elispot) | killing of normal splenocytes [2] | killing of T2 tumour cells transfected with human DR4 [2] | response after peptide immunisation [3] | tumour growth and survival [4] | Granzyme B release upon stimulation with citrullinated peptides [5] | response after peptide immunisation [6] | anti-tumour response with blockade of IFNγ in vivo [7] | anti-tumour response with blockade of IL-17 in vivo [7] | anti-tumour response in combination with CD4 T cell depletion (anti-CD4 antibody) [7] | anti-tumour response / survival [7] | other results |
| --- | --- | --- | --- | --- | --- | --- | --- | --- | --- | --- | --- | --- | --- | --- | --- | --- | --- | --- |
| LPNFSSLNLRETNLDSLPL [citrullinated vim 415] | no response | Potent IFNγ/IL-17 responses | high frequency IL-10 responses | No significant IL-10 responses | 1000 /million splenocytes | no responses | CD4 mediated | no killing of normal splenocytes | killed transfected targets whether they were pulsed with the appropriate peptide or not | failed to raise a response | failed to show any tumour response | release of Granzyme B | failed to raise a response | abrogates | low significant influence | totally abrogates the anti-tumour response | strong anti-tumour responses | EC50 ([1]; 25 μg peptide days 0, 7, 14, anti-CTLA-4 days 7 and 14, day 21, IFNγ elispot, read-out: avidity of the T cell response in the presence of an anti-CTLA-4 mab): 10 nM; EC50 ([1]; 25 μg peptide days 0, 7, 14, day 21, IFNγ elispot, read-out: avidity of the T cell response without anti-CTLA-4 mab): 1000 nM; IL-2 elispot response to citrullinated peptide, mean [1, 12]: 350 /million splenocytes; IL-2 elispot response to wild type peptide [1, 12]: no response; IL-17 elispot response to citrullinated peptide, mean [1, 12]: 530 /million splenocytes; IL-17 elispot response to wild type peptide, mean [1, 12]: 140 /million splenocytes; T cell responses to mouse vim 415 cit versus human vim 415 cit ([1]; immunised with 25 μg human peptide day 0, day 14, IFNγ and IL-17 elispot): equal responses to both peptides; T helper phenotype when immunised with complete Freund's adjuvant ([1]; mouse, in vivo): Th1/IL-17 phenotype; mice cured of their tumour [7, 14]: 30%; mice with no tumour at day 35 [7, 14]: 50%; anti-tumour response in combination with anti-HLA-DR blocking antibody ([7]; B16 tumour expressing HLA-DR0401): prevents the anti-tumour response; patients showing a proliferative response (SI >2.5) ([8]; listed as citrullinated vim 415-433): 5/11; patients showing a proliferative response (SI >2.5) ([8]; listed as vim 415 cit): Five of eight |
| citSYVTTSTcitTYSLGSALcitPSTS ([Cit]SYVTTST[Cit]TYSLGSAL[Cit]PSTS) [citrullinated vim 28-49] | no response | Potent IFNγ/IL-17 responses | high frequency IL-10 responses | No significant IL-10 responses | 600 /million splenocytes | 250 /million splenocytes | CD4 mediated | no killing of normal splenocytes | killed transfected targets whether they were pulsed with the appropriate peptide or not | failed to raise a response | delayed tumour growth and enhanced survival | release of Granzyme B | failed to raise a response | abrogates | small effect significant influence | totally abrogates the anti-tumour response | significantly enhanced survival | EC50 ([1]; 25 μg peptide day 0, day 14, increasing peptide concentration, IFNγ elispot, read-out: avidity of the IFNγ response (concentration mediating 50% maximal effector function)): 1000 nM; EC50 ([1]; 25 μg peptide day 0, day 14, increasing peptide concentration, IL-17 elispot, read-out: avidity of the IL-17 response (concentration mediating 50% maximal effector function)): 1000 nM; IFNγ elispot response against vimentin 28-49 triple, double and single citrullinated peptides ([1]; peptide immunisation, FIG. 11): significantly stronger response; binding to HLA-DR0401 (competition with HA 306-318 reference peptide) [9]: better binding to HLA-DR0401 compared to the wild type version; patients showing a proliferative response (SI >2.5) [8]: 5/11; patients showing a proliferative response (SI >2.5) ([8]; listed as vim 28 cit): five |
| RSYVTTSTRTYSLGSALRPSTS (also called vim 28-49; vim 28) [Vimentin 28-49 wild type peptide] | – | – | – | – | – | – | – | – | – | – | – | – | – | – | – | – | – | binding result [10]: binds |
